Consider two compounds from US7740882B2, “Enhanced oral and transcompartmental delivery of therapeutic or diagnostic agents” (priority 2001, dated 2010).

Values joined by “and” are separate entries in the source; they are usually repeats but may differ in a detail not shown here. Equal entries are not always repeated. “Also recorded” adds a separate entry of the source.

One series concerns rat small intestine. The conditions noted are these: read-out: Km of biotin transport; literature; cited from earlier work.
Another series relates to Caco-2 cell monolayers. Briefly: Absorptive (AP to BL) transport across Caco-2 cell monolayers. The conditions noted are these: Caco-2 absorptive transport. For orientation: Passage across Caco-2 layers is used to estimate intestinal permeability.
The nature of a further series: in vitro. The conditions noted are these: human, Caco-2.
Series [1] relates to human intestinal brush-border membrane vesicles. The conditions noted are these: read-out: Km of biotin transport; literature; cited from earlier work.
Series [2] has as its system colonic epithelial NCM460 cells. The conditions noted are these: read-out: Km of biotin transport; literature; cited from earlier work.
Series [3] concerns the target T1, human sodium dependent multivitamin transporter, hSMVT (Homo sapiens, UniProt Q9Y289).
T1 sequence (Q9Y289 1-635): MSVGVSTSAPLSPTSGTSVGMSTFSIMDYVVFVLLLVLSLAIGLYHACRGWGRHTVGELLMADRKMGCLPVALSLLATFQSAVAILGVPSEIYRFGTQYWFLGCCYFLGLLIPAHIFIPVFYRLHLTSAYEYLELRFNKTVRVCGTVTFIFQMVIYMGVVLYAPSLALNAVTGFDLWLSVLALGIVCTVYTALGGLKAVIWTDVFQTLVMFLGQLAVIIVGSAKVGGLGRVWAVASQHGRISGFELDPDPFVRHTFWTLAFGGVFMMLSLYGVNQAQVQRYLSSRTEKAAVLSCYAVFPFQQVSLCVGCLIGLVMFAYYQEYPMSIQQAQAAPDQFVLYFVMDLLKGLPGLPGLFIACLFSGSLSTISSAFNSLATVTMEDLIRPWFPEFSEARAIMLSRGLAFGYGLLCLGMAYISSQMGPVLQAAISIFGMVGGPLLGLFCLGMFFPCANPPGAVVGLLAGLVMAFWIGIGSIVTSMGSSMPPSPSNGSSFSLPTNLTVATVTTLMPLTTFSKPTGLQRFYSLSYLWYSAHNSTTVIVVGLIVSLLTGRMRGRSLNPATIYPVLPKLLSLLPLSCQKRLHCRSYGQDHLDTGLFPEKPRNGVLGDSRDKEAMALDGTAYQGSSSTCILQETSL
Briefly: Uptake in CHO cells transiently transfected with hSMVT (CHO/hSMVT). The conditions noted are these: for Pm, passive uptake component: CHO/hSMVT cellular uptake, (S.D), n = 3. The method, then:
(§1) CHO Cell Uptake Studies CHO cells transiently transfected with hSMVT (CHO/hSMVT) were washed twice with 25 mM uptake buffer, containing 25 mM Hepes/Tris pH 7.5, 140 mM NaCl, 5.4 mM KCl, 1.8 CaCl2, 0.8 mM MgSO4 and 5 mM glucose, approximately 48 hours post-transfection. Subsequently, the cells were incubated with the permeant at 37° C. for 10 minutes. Uptake was stopped by washing the cells thrice with ice-cold buffer. Non-specific uptake was measured in parallel experiments with the control pSPORT vector-transfected CHO cells. Finally, the cells were solubilized by 0.1% v/v Triton X-100, and 0.6 ml was used for scintillation counting. From the remaining volume, 10 μl of solution was taken from each well and protein concentration was determined using the Bio-Rad reagent according to the Bradford technique [M. Bradford, A rapid and sensitive method of quantitation of microgram quantities of protein utilizing the principle of protein-dye binding, Anal. Biochem. 72 (1976) 248]. Bovine serum albumin was used as the standard.
Parallel uptake experiments were performed using CHO/pSPORT control cells.
as §1, with “hSMVT” for “hSMVT (CHO/hSMVT)”, “glucose.” for “glucose, approximately 48 hours post-transfection.”, “Washing” for “Uptake was stopped by washing”, “three times” for “thrice”, “buffer stopped drug uptake.” for “buffer.”, “manufacturer's instructions.” for “Bradford technique [M. Bradford, A rapid and sensitive method of quantitation of microgram quantities of protein utilizing the principle of protein-dye binding, Anal. Biochem. 72 (1976) 248].”
as §1, with “Studies.” for “Studies”, “glucose.” for “glucose, approximately 48 hours post-transfection.”, “manufacturer's instructions.” for “Bradford technique [M. Bradford, A rapid and sensitive method of quantitation of microgram quantities of protein utilizing the principle of protein-dye binding, Anal. Biochem. 72 (1976) 248].”

For another series, the target named is T2, SMVT (Homo sapiens, UniProt Q9Y289).
T2 sequence (Q9Y289 1-635): T1 sequence (Q9Y289 1-635)
Briefly: Inhibition of substrate uptake in CHO/hSMVT cells by 50 μM SMVT substrates. Type of series: in vitro ADME. Set-up: expressed in transfected cells; host or cells: CHO cells (ATCC), transient Lipofectamine transfection; plasmid was a gift of Dr. Puttur D. Prasad.

A further series deals with CHO/pSPORT cells. Briefly: Non-specific uptake in vector-transfected control CHO/pSPORT cells. The method, then: as §1, with “From the remaining volume, 10 μl of solution was taken from each well and protein concentration was determined using the Bio-Rad reagent according to the Bradford technique [M. Bradford, A rapid and sensitive method of quantitation of microgram quantities of protein utilizing the principle of protein-dye binding, Anal. Biochem. 72 (1976) 248].” left out
CHO Cell Uptake Studies CHO cells transiently transfected with hSMVT were washed twice with 25 mM uptake buffer, containing 25 mM Hepes/Tris pH 7.5, 140 mM NaCl, 5.4 mM KCl, 1.8 CaCl2, 0.8 mM MgSO4 and 5 mM glucose. […] Non-specific uptake was measured in parallel experiments with the control pSPORT vector-transfected CHO cells. […] From the remaining volume, 10 μl of solution was taken from each well and protein concentration was determined using the Bio-Rad reagent according to the manufacturer's instructions. […]
CHO Cell Uptake Studies. […] Non-specific uptake was measured in parallel experiments with the control pSPORT vector-transfected CHO cells. […]

Series [4] concerns bovine brain microvessel endothelial cells (BBMECs). Briefly: Transport (permeability) across BBMEC monolayers, in vitro BBB model. The conditions noted are these: read-out: Km of transport and uptake; BBMECs. The method, then: Non-biotinylated PEGs were used in the control studies.
Isolation and culture of BBMECs. Bovine Brain Microvessel Endothelial Cells (BBMECs) were used as an in vitro model of BBB. BBMECs were isolated from bovine brain by a two-step enzymatic method and the cells were cultured on collagen coated Transwell™ plates or polystyrene plates in an atmosphere of 95% air and 5% CO2 at 37° C. Transendothelial electrical resistance (TEER) and several molecular markers were used to validate the integrity of the cell culture system.
The cells were cultured on 12-well Transwell™ filters for 7-8 days and transport was evaluated. […] All studies were performed at 37° C.

For another series, the system named is TAR RNA. The conditions noted are these: unpublished results of the inventors.

Procedure for Caco-2 cell monolayers: Caco-2 Cell Transport Studies An Ussing-type diffusion chamber system (Harvard Apparatus, Natick, Mass.) was used to perform transport studies. The apical solution was a MES Ringer's buffer (pH 6.5) consisting of 114.0 mM NaCl, 5.0 mM KCl, 1.1 mM MgSO4, 1.25 mM CaSO4, and 15 mM 2-(N-morpholino)ethanesulfonic acid (MES). The basolateral solution was a Ringer's buffer (pH 7.4) consisting of 114.0 mM NaCl, 5.0 mM KCl, 1.65 mM Na2HPO4, 0.3 mM NaH2PO4, 25 mM NaHCO3, 1.1 mM MgSO4, and 1.25 mM CaSO4. Both buffers contained 25 mM glucose and were adjusted to 290 mOsm/kg using a vapor pressure osmometer (Wescor Inc, Logan, Utah). For transport experiments using filters with cell monolayers, the inserts were rinsed with Ringer's buffet containing 25 mM glucose three times over a 20 min period at room temperature. The TEER was measured for each monolayer before it was mounted onto the diffusion chamber, which was pre-warmed to 37° C. by placement on the heating blocks. The volume of each half-chamber was 5 ml and the surface area of the Snapwell™ filters available for drug transport was 1 cm^2. […] The donor solution consisted of radiolabeled permeant in the apical buffer [apical (AP) to basolateral (BL) study]. Starting at 30 min, samples were taken from the receptor chamber every 15 min until the end of the experiment (105 min). A minimum of three monolayers was used to determine the permeability of test compound in each study and sample analysis was performed using scintillation counting (Perkin Elmer, Gaithersburg, Md.).
The Michaelis-Menten kinetic parameters of Caco-2 and CHO cell transport were then estimated using non-linear regression.
Prior to experimentation, diffusion chambers mounted with the Snapwells™ containing Caco-2 cells were equilibrated at 5° C., 10° C., 15° C., 25° C. and 37° C.
[formula] where Pe is the effective permeability of the substrate transported, Cs is the substrate concentration and Pm and Pc represent the passive and carrier-mediated component of the permeability. All data were initially fitted to a 3-parameter model (Pc, Pm, Km for Caco-2 studies, Jmax, Pm, Km for CHO studies).
Caco-2 Cell Transport Studies An Ussing-type diffusion chamber system (Harvard Apparatus, Natick, Mass.) was used to perform transport studies. The apical solution was a MES Ringer's buffer (pH 6.5) consisting of 114.0 mM NaCl, 5.0 mM KCl, 1.1 mM MgSO4, 1.25 mM CaSO4, and 15 mM 2-(N-morpholino)ethanesulfonic acid (MES). The basolateral solution was a Ringer's buffer (pH 7.4) consisting of 114.0 mM NaCl, 5.0 mM KCl, 1.65 mM Na2HPO4, 0.3 mM NaH2PO4, 25 mM NaHCO3, 1.1 mM MgSO4, and 1.25 mM CaSO4. Both buffers contained 25 mM glucose and were adjusted to 290 mOsm/kg using a vapor pressure osmometer (Wescor Inc, Logan, Utah). For transport experiments using filters with cell monolayers, the inserts were rinsed with Ringer's buffer containing 25 mM glucose three times over a 20 min period at room temperature. The TEER was measured for each monolayer before it was mounted onto the diffusion chamber, which was pre-warned to 37° C. by placement on the heating blocks.

Take `O=C(O)CCCC[C@@H]1SC[C@@H]2NC(=O)N[C@@H]21` [Biotin, biotin]: the Km – broadly, the concentration of substrate that gives half-maximal velocity – is 8.77 µM with rat small intestine, 11.3 µM in the series on Caco-2 cell monolayers, 5.26 µM in series [1] and 19.7 µM in series [2]. Moreover, the Papp (commonly the rate of passage across a membrane or cell layer, normalised by area and donor concentration) at 105 min in the series “in vitro” came out at 3.35 ×10⁻⁶ cm/s. Also, the “Pm, passive uptake component” value in [3] is listed as 3.50 (3.0) pmol/mg protein/10 min. Further, in series [3] (uptake in CHO/hSMVT cells), the Jmax was 174.61±47.53 pmol/mg protein/10 min and 174.61 (47.53) pmol/mg protein/10 min. The “inhibition of RI-K(biotin)-Tat9 uptake” value at SMVT (0.1 μM RI-K(biotin)-Tat9, inhibitor 50 μM) was “significantly inhibited; also recorded: significantly lowered (p<0.001)”. Moreover, the “inhibition of biotin-PEG-3400 uptake” value against SMVT (0.1 μM biotin-PEG-3400, inhibitor 50 μM) was “significantly (p<0.01) inhibited”. Further, the “inhibition of PEG:(RI-K(biotin)-Tat9)8 uptake” value on SMVT (0.1 μM conjugate, inhibitor 50 μM) is listed as “significantly lower (p<0.05)”. Besides, in the series with CHO/pSPORT cells, the “uptake in CHO/pSPORT cells” value was determined as 23.73 pmol/mg protein/10 min.
As for “N-acetyl-D-Lys:(ε-biotin)-D-Arg-D-Arg-D-Arg-D-Gln-D-Arg-D-Arg-D-Lys-D-Lys-D-Arg-NH2 [RI-K(biotin)-Tat9]”, the Km is 3.27 µM in the series on Caco-2 cell monolayers; approximately 40 µM in [4]; 1 ± 0.13 µM in [3] (uptake in CHO/hSMVT cells, 10 min, 37° C.). For the same compound, in the series on TAR RNA, the “TAR RNA binding activity” value is reported as “comparable TAR RNA binding activity to Tat9-K(biotin)”. Further, in [3] (CHO/hSMVT), the “Jmax without Pm component in the regression model” value is 675.95 pmol/mg protein/10 min. The “Pm, passive uptake component” value in [3] is given as 32.90 (4.48) pmol/mg protein/10 min. Besides, the “uptake of substrate alone (control of inhibition study)” value in series [3] (CHO/hSMVT, 0.1 μM, 10 min) is approximately 41.93 pmol/mg protein/10 min. In [3] (CHO/hSMVT, at 10 μM), the “uptake, fold greater than RI-K-Tat9” value was approximately 500 fold. Besides, the Jmax in series [3] (uptake in CHO/hSMVT cells) is 227.26±29.33 pmol/mg protein/10 min and 227.26 pmol/mg protein/10 min and 227.26 (29.33) pmol/mg protein/10 min.
